# Assay results: US9161990B2, “Hydrochloride salts of a glycopeptide-cephalosporin antbiotic compond” (THERAVANCE BIOPHARMA ANTIBIOTICS IP, LLC, priority 2013, dated 2015)
# Structures can show the parent of a compound that is named as a salt.
# Legend:
# [1] = Storage stability of lyophilized hydrochloride salts (purity by HPLC); assay type: physicochemical
# Procedure: (§1) All solvents were HPLC grade and were purchased from Honeywell Burdick & Jackson (Muskegon, Mich. 49442). Phosphoric acid (85% w/w) and sodium dihydrogen phosphate were HPLC grade and were purchased from Fluka (Sigma-Aldrich, St. Louis, Mo. 63103). All reagents were used without further purification.
# (§2) Test samples were filtered through a 0.2 μm polyvinylidene fluoride (PVDF) filter before analysis and the first 1 mL was discarded.
# (§3) Test sample purity was determined based on the integrated peak area (area-under-the-curve or AUC) for the compound as a percentage of all integrated peaks. The concentration (assay value) of the compound in a test sample was determined by comparison with a reference standard.
# (§4) One rack was stored protected from light in a drawer at room temperature and the other rack was stored in a refrigerator at 2 to 8° C. A representative vial of each type of stability sample was analyzed by HPLC after storage for 1, 3, 6 and 12 months to determine purity.
# [2] = Storage stability of hydrochloride salts in a lyophilized composition containing sucrose and glycine (purity by HPLC); assay type: physicochemical; conditions: for Purity (HPLC area percent) / Δ (change in percent purity from time = 0): composition containing sucrose and glycine; for decrease in purity: formulated with sucrose and glycine
# Procedure: as §1, §2, §3, §4
# [3] = refrigerated temperature (2 to 8° C.), 1 month, Trihydrochloride
# [4] = refrigerated temperature (2 to 8° C.), 3 months, Trihydrochloride
# [5] = refrigerated temperature (2 to 8° C.), 6 months, Trihydrochloride
# [6] = refrigerated temperature (2 to 8° C.), 12 months, Trihydrochloride
# [7] = refrigerated temperature (2 to 8° C.), time 0 months, Trihydrochloride
# [8] = room temperature, 1 month, Trihydrochloride
# [9] = room temperature, 3 months, Trihydrochloride
# [10] = room temperature, 6 months, Trihydrochloride
# [11] = room temperature, 12 months, Trihydrochloride
# [12] = room temperature, time 0 months, Trihydrochloride
# [13] = stored at 2 to 8° C. for 12 months, listed as trihydrochloride salt, Trihydrochloride
# [14] = refrigerated temperature (2 to 8° C.), 1 month, monohydrochloride
# [15] = refrigerated temperature (2 to 8° C.), 3 months, monohydrochloride
# [16] = refrigerated temperature (2 to 8° C.), 6 months, monohydrochloride
# [17] = refrigerated temperature (2 to 8° C.), 12 months, monohydrochloride
# [18] = room temperature, 1 month, listed as Mono HCl, monohydrochloride
# [19] = room temperature, 1 month, monohydrochloride
# [20] = room temperature, 3 months, listed as Mono HCl, monohydrochloride
# [21] = room temperature, 3 months, monohydrochloride
# [22] = room temperature, 6 months, listed as Mono HCl, monohydrochloride
# [23] = room temperature, 6 months, monohydrochloride
# [24] = room temperature, 12 months, listed as Mono HCl, monohydrochloride
# [25] = room temperature, 12 months, monohydrochloride
# [26] = stored at 2 to 8° C. for 12 months, listed as monohydrochloride salt, monohydrochloride
# [27] = stored at room temperature for 12 months, listed as monohydrochloride salt, monohydrochloride
structure (smiles),measurement,setting,value
"CN[C@H](CC(C)C)C(=O)NC1C(=O)N[C@@H](CC(N)=O)C(=O)N[C@H]2C(=O)N[C@H]3C(=O)N[C@H](C(=O)N[C@H](C(=O)NCCCO/N=C(\C(=O)N[C@@H]4C(=O)N5C(C(=O)[O-])=C(C[n+]6ccccc6)CS[C@H]45)c4nc(N)sc4Cl)c4cc(O)cc(O)c4-c4cc3ccc4O)[C@H](O)c3ccc(c(Cl)c3)Oc3cc2cc(c3O[C@@H]2O[C@H](CO)[C@@H](O)[C@H](O)[C@H]2O[C@H]2C[C@](C)(N)[C@H](O)[C@H](C)O2)Oc2ccc(cc2Cl)[C@H]1O (stereo partly drawn) [Trihydrochloride, 26-[[[3-[[(Z)-[1-(2-Amino-5-chloro-4-thiazolyl)-2-[[(6R,7R)-2-carboxy-8-oxo-3-(pyridiniomethyl)-5-thia-1-azabicyclo[4.2.0]oct-2-en-7-yl]amino]-2-oxoethylidene]amino]oxy]propyl]amino]carbonyl]-26-decarboxyvancomycin Trihydrochloride, reference compound]",Purity (HPLC area percent),[1]; [3],84.0%
same,Δ (change in percent purity from time = 0),[1]; [3],−0.5%
same,Purity (HPLC area percent),[1]; [4],80.7%
same,Δ (change in percent purity from time = 0),[1]; [4],−3.8%
same,Purity (HPLC area percent),[1]; [5],79.4%
same,Δ (change in percent purity from time = 0),[1]; [5],−5.1%
same,Purity (HPLC area percent),[1]; [6],76.0%
same,Δ (change in percent purity from time = 0),[1]; [6],−8.6%
same,Purity (HPLC area percent),[1]; [7],84.5%
same,Purity (HPLC area percent),[1]; [8],74.8%
same,Δ (change in percent purity from time = 0),[1]; [8],−9.7%
same,Purity (HPLC area percent),[1]; [9],69.5%
same,Δ (change in percent purity from time = 0),[1]; [9],−15.0%
same,Purity (HPLC area percent),[1]; [10],56.5%
same,Δ (change in percent purity from time = 0),[1]; [10],−28.0%
same,Purity (HPLC area percent),[1]; [11],50.4%
same,Δ (change in percent purity from time = 0),[1]; [11],−34.2%
same,Purity (HPLC area percent),[1]; [12],84.5%
same,decrease in purity,[1]; [13],8.6%
same,decomposition on storage,[1]; stored at room temperature or at refrigerated temperature (about 2 to about 8° C.),decompose significantly
same,Purity (HPLC area percent),[2]; [3],91.5%
same,Δ (change in percent purity from time = 0),[2]; [3],0.2%
same,Δ (change in percent purity from time = 0),[2]; [4],−0.5%
same,Purity (HPLC area percent),[2]; [5],92.8%
same,Δ (change in percent purity from time = 0),[2]; [5],1.5%
same,Purity (HPLC area percent),[2]; [6],90.1%
same,Δ (change in percent purity from time = 0),[2]; [6],−1.2%
same,Purity (HPLC area percent),[2]; [7],91.3%
same,Purity (HPLC area percent),[2]; [8],89.2%
same,Δ (change in percent purity from time = 0),[2]; [8],−2.1%
same,Purity (HPLC area percent),[2]; [9],84.4%
same,Δ (change in percent purity from time = 0),[2]; [9],−6.9%
same,Purity (HPLC area percent),[2]; [10],82.5%
same,Δ (change in percent purity from time = 0),[2]; [10],−8.8%
same,Purity (HPLC area percent),[2]; [11],65.0%
same,Δ (change in percent purity from time = 0),[2]; [11],−26.3%
same,Purity (HPLC area percent),[2]; [12],91.3%
same,decrease in purity,[2]; [13],1.2%
same,decrease in purity,"[2]; stored at room temperature for 12 months, listed as trihydrochloride salt, Trihydrochloride",26.3%
"CN[C@H](CC(C)C)C(=O)N[C@H]1C(=O)N[C@@H](CC(N)=O)C(=O)N[C@H]2C(=O)N[C@H]3C(=O)N[C@H](C(=O)N[C@H](C(=O)NCCCO/N=C(\C(=O)N[C@@H]4C(=O)N5C(C(=O)[O-])=C(C[n+]6ccccc6)CS[C@H]45)c4nc(N)sc4Cl)c4cc(O)cc(O)c4-c4cc3ccc4O)[C@H](O)c3ccc(c(Cl)c3)Oc3cc2cc(c3O[C@@H]2O[C@H](CO)[C@@H](O)[C@H](O)[C@H]2O[C@H]2C[C@](C)(N)[C@H](O)[C@H](C)O2)Oc2ccc(cc2Cl)[C@H]1O [Monohydrochloride, 26-[[[3-[[(Z)-[1-(2-amino-5-chloro-4-thiazolyl)-2-[[(6R,7R)-2-carboxy-8-oxo-3-(pyridiniomethyl)-5-thia-1-azabicyclo[4.2.0]oct-2-en-7-yl]amino]-2-oxoethylidene]amino]oxy]propyl]amino]carbonyl]-26-decarboxyvancomycin monohydrochloride]",Purity (HPLC area percent),[1]; [14],90.0%
same,Δ (change in percent purity from time = 0),[1]; [14],−0.4%
same,Purity (HPLC area percent),[1]; [15],90.2%
same,Δ (change in percent purity from time = 0),[1]; [15],−0.2%
same,Δ (change in percent purity from time = 0),[1]; [16],0.0%
same,Purity (HPLC area percent),[1]; [17],87.4%
same,Δ (change in percent purity from time = 0),[1]; [17],−3.0%
same,Purity (HPLC area percent),[1]; [18],89.3%
same,Δ (change in percent purity from time = 0),[1]; [18],−1.1%
same,Purity (HPLC area percent),[1]; [19],89.3%
same,Δ (change in percent purity from time = 0),[1]; [19],−1.1%
same,Purity (HPLC area percent),[1]; [20],82.0%
same,Δ (change in percent purity from time = 0),[1]; [20],−8.4%
same,Purity (HPLC area percent),[1]; [21],82.0%
same,Δ (change in percent purity from time = 0),[1]; [21],−8.4%
same,Purity (HPLC area percent),[1]; [22],79.9%
same,Δ (change in percent purity from time = 0),[1]; [22],−10.5%
same,Purity (HPLC area percent),[1]; [23],79.9%
same,Δ (change in percent purity from time = 0),[1]; [23],−10.5%
same,Purity (HPLC area percent),[1]; [24],67.0%
same,Δ (change in percent purity from time = 0),[1]; [24],−23.4%
same,Purity (HPLC area percent),[1]; [25],67.0%
same,Δ (change in percent purity from time = 0),[1]; [25],−23.4%
same,decrease in purity,[1]; [26],3.0%
same,decrease in purity,[1]; [27],23.4%
same,storage stability compared to the trihydrochloride salt,[1]; stored for 12 months at either room temperature or 2 to 8° C.,significantly more stable than the trihydrochloride salt
same,Purity (HPLC area percent),[2]; [14],90.7%
same,Δ (change in percent purity from time = 0),[2]; [14],0.3%
same,Purity (HPLC area percent),[2]; [15],88.9%
same,Δ (change in percent purity from time = 0),[2]; [15],−1.5%
same,Purity (HPLC area percent),[2]; [16],91.7%
same,Δ (change in percent purity from time = 0),[2]; [16],1.3%
same,Purity (HPLC area percent),[2]; [17],88.5%
same,Δ (change in percent purity from time = 0),[2]; [17],−1.9%
same,Purity (HPLC area percent),[2]; [19],89.0%
same,Δ (change in percent purity from time = 0),[2]; [19],−1.4%
same,Δ (change in percent purity from time = 0),[2]; [21],−3.5%
same,Δ (change in percent purity from time = 0),[2]; [23],−2.5%
same,Δ (change in percent purity from time = 0),[2]; [25],−8.9%
same,decrease in purity,[2]; [26],1.9%
same,decrease in purity,[2]; [27],8.9%
same,storage stability when formulated with sucrose and glycine,"[2]; stored at room temperature for 12 months, compared to the salt alone",more stable
